How the values were obtained:
[1] = 1 week stability of primary screen salts at 40° C./75% RH and 80° C. (open vials, XRPD); type: physicochemical
Experimental: (open vials). TGA was carried out after the stability studies for samples containing sufficient material.

[2] = Solvent solubility screen of amorphous hydrobromide salt; type: physicochemical
Experimental: Approximately 10 mg of amorphous hydrobromide salt was placed in each of 24 vials and 5 volume aliquots of the appropriate solvent system was added to the vial. Between each addition, the mixture was checked for dissolution. This procedure was continued until dissolution was observed or until 100 volumes of solvent had been added.

C=CC(=O)Nc1cccc(Nc2nc(Nc3ccc(N4CCN(C(C)=O)CC4)cc3OC)ncc2C(F)(F)F)c1.Cc1ccc(S(=O)(=O)O)cc1 [Tosylate (1 equiv.) Form I]
Stability 40° C./75% RH (open conditions) [1]: No form change,
Stability 80° C. (open conditions) [1]: No form change,

C=CC(=O)Nc1cccc(Nc2nc(Nc3ccc(N4CCN(C(C)=O)CC4)cc3OC)ncc2C(F)(F)F)c1.Cl.Cl [Hydrochloride (2 equiv.) Form I]
Stability 40° C./75% RH (open conditions) [1]: No form change,
Stability 80° C. (open conditions) [1]: No form change,

C=CC(=O)Nc1cccc(Nc2nc(Nc3ccc(N4CCN(C(C)=O)CC4)cc3OC)ncc2C(F)(F)F)c1.O=S(=O)(O)c1ccc2ccccc2c1.O=S(=O)(O)c1ccc2ccccc2c1 [Naphthalene-2-sulfonic acid (2 eq.) Form II]
Stability 40° C./75% RH (open conditions) [1]: No form change,

C=CC(=O)Nc1cccc(Nc2nc(Nc3ccc(N4CCN(C(C)=O)CC4)cc3OC)ncc2C(F)(F)F)c1.O=S(=O)(O)c1ccc2ccccc2c1.O=S(=O)(O)c1ccc2ccccc2c1 [Naphthalene-2-sulfonic acid (2 eq.) Form IV]
Stability 40° C./75% RH (open conditions) [1]: Converted to Form II,
Stability 80° C. (open conditions) [1]: Converted to Form II,

C=CC(=O)Nc1cccc(Nc2nc(Nc3ccc(N4CCN(C(C)=O)CC4)cc3OC)ncc2C(F)(F)F)c1.CC1(C)C2CCC1(CS(=O)(=O)O)C(=O)C2 [Camphor-10-sulfonic acid (1 eq.) Form I]
Stability 40° C./75% RH (open conditions) [1]: No form change, slight
Stability 80° C. (open conditions) [1]: No form change,

C=CC(=O)Nc1cccc(Nc2nc(Nc3ccc(N4CCN(C(C)=O)CC4)cc3OC)ncc2C(F)(F)F)c1.O=S(=O)(O)c1ccc2ccccc2c1
Stability 40° C./75% RH (open conditions) [1]: No form change, small
Stability 80° C. (open conditions) [1]: No form change,

C=CC(=O)Nc1cccc(Nc2nc(Nc3ccc(N4CCN(C(C)=O)CC4)cc3OC)ncc2C(F)(F)F)c1.O=C(O)/C=C\C(=O)O [Maleate Form III]
Stability 40° C./75% RH (open conditions) [1]: No clear form change
Stability 80° C. (open conditions) [1]: No clear form change

C=CC(=O)Nc1cccc(Nc2nc(Nc3ccc(N4CCN(C(C)=O)CC4)cc3OC)ncc2C(F)(F)F)c1.Cl [Hydrochloride (1 equiv.) Form I]
Stability 40° C./75% RH (open conditions) [1]: No form change,
Stability 80° C. (open conditions) [1]: No form change,

C=CC(=O)Nc1cccc(Nc2nc(Nc3ccc(N4CCN(C(C)=O)CC4)cc3OC)ncc2C(F)(F)F)c1.O=S(=O)(O)c1ccccc1 [Besylate (1 equiv.) Form II]
Stability 40° C./75% RH (open conditions) [1]: No form change, some
Stability 80° C. (open conditions) [1]: No form change, some

C=CC(=O)Nc1cccc(Nc2nc(Nc3ccc(N4CCN(C(C)=O)CC4)cc3OC)ncc2C(F)(F)F)c1.O=S(=O)(O)c1ccc2ccccc2c1.O=S(=O)(O)c1ccc2ccccc2c1 [Naphthalene-2-sulfonic acid (2 eq.) Form III]
Stability 40° C./75% RH (open conditions) [1]: Converted to Form II,
Stability 80° C. (open conditions) [1]: Converted to Form II,

C=CC(=O)Nc1cccc(Nc2nc(Nc3ccc(N4CCN(C(C)=O)CC4)cc3OC)ncc2C(F)(F)F)c1.Cc1ccc(S(=O)(=O)O)cc1.Cc1ccc(S(=O)(=O)O)cc1 [Tosylate (2 equiv.) Form II]
Stability 40° C./75% RH (open conditions) [1]: Gum formed
Stability 80° C. (open conditions) [1]: Possible form change,

C=CC(=O)Nc1cccc(Nc2nc(Nc3ccc(N4CCN(C(C)=O)CC4)cc3OC)ncc2C(F)(F)F)c1.CC1(C)C2CCC1(CS(=O)(=O)O)C(=O)C2 [Camphor-10-sulfonic acid (1 eq.) Form II]
Stability 80° C. (open conditions) [1]: Converted to Form I,

C=CC(=O)Nc1cccc(Nc2nc(Nc3ccc(N4CCN(C(C)=O)CC4)cc3OC)ncc2C(F)(F)F)c1.O=C(O)C(=O)O [Oxalate Form I]
Stability 40° C./75% RH (open conditions) [1]: No form change,
Stability 80° C. (open conditions) [1]: No form change,

C=CC(=O)Nc1cccc(Nc2nc(Nc3ccc(N4CCN(C(C)=O)CC4)cc3OC)ncc2C(F)(F)F)c1.O=S(=O)(O)c1ccccc1 [Besylate (1 equiv.) Form I]
Stability 40° C./75% RH (open conditions) [1]: No form change,
Stability 80° C. (open conditions) [1]: No form change,

C=CC(=O)Nc1cccc(Nc2nc(Nc3ccc(N4CCN(C(C)=O)CC4)cc3OC)ncc2C(F)(F)F)c1.O=S(=O)(O)c1cccc2c(S(=O)(=O)O)cccc12
Stability 40° C./75% RH (open conditions) [1]: No form change,
Stability 80° C. (open conditions) [1]: Possible form change,

C=CC(=O)Nc1cccc(Nc2nc(Nc3ccc(N4CCN(C(C)=O)CC4)cc3OC)ncc2C(F)(F)F)c1.Cc1ccc(S(=O)(=O)O)cc1 [Tosylate (1 equiv.) Form II]
Stability 40° C./75% RH (open conditions) [1]: Gum formed
Stability 80° C. (open conditions) [1]: Possible form change,

C=CC(=O)Nc1cccc(Nc2nc(Nc3ccc(N4CCN(C(C)=O)CC4)cc3OC)ncc2C(F)(F)F)c1.O=S(=O)(O)c1ccc2ccccc2c1.O=S(=O)(O)c1ccc2ccccc2c1 [Naphthalene-2-sulfonic acid (2 eq.) Form I]
Stability 40° C./75% RH (open conditions) [1]: No form change, poor
Stability 80° C. (open conditions) [1]: No form change, poor

C=CC(=O)Nc1cccc(Nc2nc(Nc3ccc(N4CCN(C(C)=O)CC4)cc3OC)ncc2C(F)(F)F)c1.O=C(O)C(=O)O [Oxalate Form II]
Stability 40° C./75% RH (open conditions) [1]: No form change,
Stability 80° C. (open conditions) [1]: Amorphous brown

C=CC(=O)Nc1cccc(Nc2nc(Nc3ccc(N4CCN(C(C)=O)CC4)cc3OC)ncc2C(F)(F)F)c1.O=C(O)/C=C\C(=O)O [Maleate Form I]
Stability 40° C./75% RH (open conditions) [1]: No form change,
Stability 80° C. (open conditions) [1]: No form change,

C=CC(=O)Nc1cccc(Nc2nc(Nc3ccc(N4CCN(C(C)=O)CC4)cc3OC)ncc2C(F)(F)F)c1.CS(=O)(=O)O.CS(=O)(=O)O [Mesylate Form I]
Stability 40° C./75% RH (open conditions) [1]: Gum formed
Stability 80° C. (open conditions) [1]: Amorphous solid

Br.Br.C=CC(=O)Nc1cccc(Nc2nc(Nc3ccc(N4CCN(C(C)=O)CC4)cc3OC)ncc2C(F)(F)F)c1 [HBr (2 eq.) Form II]
Stability 40° C./75% RH (open conditions) [1]: Changed to Form I,
Stability 80° C. (open conditions) [1]: Potential new form,

Br.C=CC(=O)Nc1cccc(Nc2nc(Nc3ccc(N4CCN(C(C)=O)CC4)cc3OC)ncc2C(F)(F)F)c1 [amorphous hydrobromide salt]
Approximate Solubility ([2]; 1,4-Dioxane): <10000 µg/mL
Approximate Solubility ([2]; 1-Butanol): <10000 µg/mL
Approximate Solubility ([2]; 2-Propanol): <10000 µg/mL
Approximate Solubility ([2]; 3-Methyl-1-butanol): <10000 µg/mL
Approximate Solubility ([2]; Acetone): <10000 µg/mL
Approximate Solubility ([2]; Acetone:Water (10%)): <10000 µg/mL
Approximate Solubility ([2]; Acetonitrile): <10000 µg/mL
Approximate Solubility ([2]; Cyclohexane): <10000 µg/mL
Approximate Solubility ([2]; Dichloromethane): <10000 µg/mL
Approximate Solubility ([2]; Diisopropyl ether): <10000 µg/mL
Approximate Solubility ([2]; Dimethylformamide): ca. 67 mg/mL
Approximate Solubility ([2]; Dimethylsulfoxide): ca. 50 mg/mL
Approximate Solubility ([2]; Ethanol): <10000 µg/mL
Approximate Solubility ([2]; Ethyl acetate): <10000 µg/mL
Approximate Solubility ([2]; Heptane): <10000 µg/mL
Approximate Solubility ([2]; Isopropyl acetate): <10000 µg/mL
Approximate Solubility ([2]; Methyl isobutyl ketone): <10000 µg/mL
Approximate Solubility ([2]; Methylethyl ketone): <10000 µg/mL
Approximate Solubility ([2]; N-Methyl-2-pyrrolidone): ca. 20 mg/mL
Approximate Solubility ([2]; Nitromethane): <10000 µg/mL
Approximate Solubility ([2]; Tetrahydrofuran): <10000 µg/mL
Approximate Solubility ([2]; Toluene): <10000 µg/mL
Approximate Solubility ([2]; Water): <10000 µg/mL
Approximate Solubility ([2]; tert-Butylmethyl ether): <10000 µg/mL

C=CC(=O)Nc1cccc(Nc2nc(Nc3ccc(N4CCN(C(C)=O)CC4)cc3OC)ncc2C(F)(F)F)c1.Cc1ccc(S(=O)(=O)O)cc1.Cc1ccc(S(=O)(=O)O)cc1 [Tosylate (2 equiv.) Form I]
Stability 40° C./75% RH (open conditions) [1]: No form change,
Stability 80° C. (open conditions) [1]: No form change,

C=CC(=O)Nc1cccc(Nc2nc(Nc3ccc(N4CCN(C(C)=O)CC4)cc3OC)ncc2C(F)(F)F)c1.O=C(O)/C=C\C(=O)O [Maleate Form II]
Stability 40° C./75% RH (open conditions) [1]: No form change,
Stability 80° C. (open conditions) [1]: No form change,

C=CC(=O)Nc1cccc(Nc2nc(Nc3ccc(N4CCN(C(C)=O)CC4)cc3OC)ncc2C(F)(F)F)c1.CC1(C)C2CCC1(CS(=O)(=O)O)C(=O)C2.CC1(C)C2CCC1(CS(=O)(=O)O)C(=O)C2 [Camphor-10-sulfonic acid (2 eq.) Form I]
Stability 40° C./75% RH (open conditions) [1]: Amorphous
Stability 80° C. (open conditions) [1]: Amorphous

C=CC(=O)Nc1cccc(Nc2nc(Nc3ccc(N4CCN(C(C)=O)CC4)cc3OC)ncc2C(F)(F)F)c1.O=S(=O)(O)c1ccccc1.O=S(=O)(O)c1ccccc1 [Besylate (2 equiv.) Form II]
Stability 40° C./75% RH (open conditions) [1]: No form change,
Stability 80° C. (open conditions) [1]: No form change,
